From patent US20090012152A1, “Use of Tetramic Acid Derivatives for Controlling Insects from the Genus of the Plane Lice (Sternorrhyncha)” (Bayer CropScience Aktiengesellschaft, priority 2005, published 2009)

Legend:
Format in all cases: in vivo
Pulvinaria aethiopicus = experiment: Example 10: mandarin trees treated against Pulvinaria aethiopicus; conditions: 45 days after last of two treatments, on fruits, % a.i.: mineral oil 0.251 + pyriproxifen 0.003, I-9 0.0096, I-2 0.0144
Procedure: In three replications, about 6-year-old mandarin trees of the cultivar “Naartje” are treated against Pulvinaria aethiopicus. Two applications are carried out at an interval of 32 days as irradication treatment using a knapsack operated with pressurized air. Here, the active compounds Example (I-9) (240 SC) and Example (I-2) (240 SC) are tested against a commercial tank mix of a mineral oil (835 EC) which is commercially available in South Africa and customarily used in this country and pyriproxifen (100 EC) at the stated amounts. The application rate is 8.3 l of water/tree.
Evaluation is carried out 45 days after the last treatment by rating the kill in percent on the fruits.

Pulvinaria aurantii = experiment: Example 11: satsuma trees treated against Pulvinaria aurantii; conditions: 41 days after treatment; live animals counted, Henderson and Tilton; satsuma tree; % a.i.: buprofezin 0.025, I-4 0.0144
Procedure: In three replications, in each case one about 4-year-old satsuma tree of the cultivar “Nankan 20” is treated against Pulvinaria aurantii. Here, the active compound Example (I-4) (240 SC) in a tank mix with 0.2% of rapeseed oil methyl ester (500 EW) at the stated application rate is tested against the commercial standard buprofezin at the stated application rate. The application is carried out using a motor-operated knapsack sprayer. Here, each plant is treated with 400 ml of spray liquor.
Evaluation is carried out before and 41 days after the treatment by counting the live animals. The efficacy in percent is then calculated according to Henderson and Tilton.

Aspidiotus neri = experiment: Example 20: lime trees treated against Aspidiotus neri; conditions: 167 d after treatment, on fruits, % a.i.: Dursban 0.096, Juvinal 0.005, I-4 0.0072
Procedure: In four replications, about 5-year-old lime trees of the cultivar “Fino” are treated against Aspidiotus neri. The application is carried out using a knapsack sprayer. Here, the active compound Example (I-4) (240 SC) in a tank mix with 0.1% a.i. of rapeseed oil methyl ester (500 EW) at the stated application rate is tested against the standards Dursban (480 EC) and Juvinal (100 EC) at the stated amounts, applied once. The application rate is 3000 l of water/ha per tree.
Evaluation is carried out 167 days after the treatment by rating the kill on the fruits.

Planococcus spp. = experiment: Example 29: vines treated against Planococcus spp.; conditions: larvae on grapes, rate %/1: Dursban 0.096, I-4 0.0096
Procedure: In three replications, in plots of a size of 54 m^2, about 10-year-old vines of the cultivar “Napoleon” are treated against Planococcus spp. The application is carried out using a knapsack sprayer. Here, the active compound Example (I-4) (240 SC), in a tank mix with 0.1% a.i. of rapeseed oil methyl ester (500 EW), is tested against the commercial standard Dursban (480 EC), at the stated application rates. The application rate is 864 l of water/ha. Two treatments are carried out, at an interval of 19 days.
Evaluation is carried out 16 and 38 days after the second treatment by rating the kill of the larvae on the grapes.

Bemisia tabaci = experiment: Example 38: melons treated against Bemisia tabaci; conditions: nymphs on leaves, g a.i./ha: Confidor 100, I-4 72
Procedure: In three replications, plots of a size of about 7.5 m^2 with melons of the cultivar “Piel DE Sapo” are treated against Bemisia tabaci. The application is carried out with a motor-operated knapsack sprayer. Here, the active compound Example (I-4) (240 SC), in a tank mix with 0.1% of a.i. of rapeseed oil methyl ester (500 EW), and the commercial standard Confidor (200 SL) are applied at the stated application rates. Two applications are carried out, at an interval of 7 days and at an application rate of 233 l of water/ha.
Evaluation is carried out 7 and 15 days after the second treatment by rating the kill of the animals (nymphs) on the leaves.

Aleurothrixus floccosus = experiment: Example 39: orange trees treated against Aleurothrixus floccosus; conditions: on branches, % a.i.: Juvinal 0.005, I-4 0.0072
Procedure: In three replications, about 55-year-old orange trees of the cultivar “Amargo” are treated against Aleurothrixus floccosus. The application is carried out using a motor-operated knapsack sprayer. Here, the active compound Example (I-4) (240 SC), in a tank mix with 0.1% a.i. of rapeseed oil methyl ester (500 EW), is tested at the stated application rate against the standard Juvinal (100 EC) at the stated application rates, applied once. The application rate is 2630 l of water/ha.
Evaluation is carried out 36, 51, 62 and 76 days after the treatment by rating the kill on the branches.

Aulacorthum solani = experiment: Example 46: head lettuce treated against Aulacorthum solani; conditions: nymphs on plants, g a.i./ha: endosulfan 1120, I-4 48
Procedure: In four replications, plots of a size of about 33 m^2 with head lettuce of the cultivar “PIC 714” are treated against Aulacorthum solani, Macrosiphum euphorbiae and Myzus persicae. The application is carried out using a tractor sprayer. Here, the active compound Example (I-4) (240 SC), in a tank mix with 0.2% a.i. of rapeseed oil methyl ester (500 EW), is tested against the commercial standard endosulfan (360 EC), at the stated application rates. The application rate is 187 l of water/ha. Two treatments are carried out, at an interval of 22 days.
Evaluation is carried out 8, 22, 30 and 40 days after the first treatment by rating the kill of the nymphs on the plants.

Macrosiphum euphorbiae = experiment: Example 55: strawberry plants treated against Macrosiphum euphorbiae; conditions: nymphs on strawberry plants, g a.i./ha: Calypso 120, I-4 75
Procedure: In four replications, plots of a size of about 3 m^2 with 3-week-old strawberry plants are treated against Macrosiphum euphorbiae and Rhodobium porosum. The application is carried out using a knapsack sprayer operated with pressurized air. Here, the active compound Example (I-4) (150 OD) and the commercial standard Calypso (480 SC) are tested at the stated application rates. Here, the standard is sprayed as a tank mix with 0.03% of Motto (adjuvant). The application rate is 500 l of water/ha.
Evaluation is carried out 7 and 14 days after the second treatment by rating the kill of the nymphs on the plants.

CCOC(=O)OC1=C(c2cc(C)ccc2Br)C(=O)NC12CCC(OC)CC2 (centres unmarked) [Example (I-2)]
Kill (%) (Pulvinaria aethiopicus): 72%

CCOC(=O)OC1=C(c2cc(C)ccc2C)C(=O)NC12CCC(OC)CC2 (centres unmarked) [Example (I-4)]
Effect (%) (Pulvinaria aurantii): 100%
Kill (%) 167 d (Aspidiotus neri): 96.2%
Kill (%) 16 d (Planococcus spp.; 16 d after second treatment): 94.4%
Kill (%) 38 d (Planococcus spp.; 38 d after second treatment): 91.9%
Kill (%) 7 d (Bemisia tabaci; 7 d after second treatment): 85.3%
Kill (%) 15 d (Bemisia tabaci; 15 d after second treatment): 95.5%
Kill (%) 36 d (Aleurothrixus floccosus; 36 d after treatment): 81.1%
Kill (%) 51 d (Aleurothrixus floccosus; 51 d after treatment): 81.5%
Kill (%) 62 d (Aleurothrixus floccosus; 62 d after treatment): 92.1%
Kill (%) 76 d (Aleurothrixus floccosus; 76 d after treatment): 92.9%
Kill (%) 8 d (Aulacorthum solani; 8 d after first of two treatments): 100%
Kill (%) 22 d (Aulacorthum solani; 22 d after first of two treatments): 99%
Kill (%) 30 d (Aulacorthum solani; 30 d after first of two treatments): 79%
Kill (%) 40 d (Aulacorthum solani; 40 d after first of two treatments): 87%
Macrosiphum euphorbiae Kill (%) 7 d (Macrosiphum euphorbiae; 7 d after second treatment): 62.2%
Macrosiphum euphorbiae Kill (%) 14 d (Macrosiphum euphorbiae; 14 d after second treatment): 94%
